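Interpolation was linear, between the two tested concentrations surrounding the appropriate level; five concentrations were tested over 48 hours in 96-well plates. GI50 = concentration required for 50% inhibition of growth.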 The source made the active and inactive calls. No stated cut-off is given here; in the data, active = GI50 up to about 1.1 µM and inactive = higher.
What was measured:
Experiment in all cases: inhibition of tumour cell growth, NCI panel, 48 h
786-0 = system: 786-0
A549 = system: A549
ACHN = system: ACHN
COLO 205 = system: COLO 205
DMS-114 = system: DMS-114
DMS-273 = system: DMS-273
EKVX = system: EKVX
HCC 2998 = system: HCC 2998
HCT-15 = system: HCT-15
HOP-92 = system: HOP-92
HT-29 = system: HT-29
IGROV-1 = system: IGROV-1
K562 = system: K562
KM-20L2 = system: KM-20L2
KM12 = system: KM12
LXFL 529 = system: LXFL 529
M19-MEL = system: M19-MEL
MOLT-4 = system: MOLT-4
Malme-3M = system: Malme-3M
NCI-H226 = system: NCI-H226
NCI-H23 = system: NCI-H23
OVCAR-3 = system: OVCAR-3
OVCAR-5 = system: OVCAR-5
OVCAR-8 = system: OVCAR-8
RPMI-8226 = system: RPMI-8226
RXF 393 = system: RXF 393
SF-268 = system: SF-268
SF-295 = system: SF-295
SF-539 = system: SF-539
SK-MEL-28 = system: SK-MEL-28
SK-MEL-2 = system: SK-MEL-2
SK-MEL-5 = system: SK-MEL-5
SK-OV-3 = system: SK-OV-3
SN12C = system: SN12C
SNB-19 = system: SNB-19
SNB-75 = system: SNB-75
SNB-78 = system: SNB-78
SR = system: SR
SW-620 = system: SW-620
TK-10 = system: TK-10
U-251 = system: U-251
UACC-257 = system: UACC-257
UACC-62 = system: UACC-62
UO-31 = system: UO-31
A498 = system: A498
BT-549 = system: BT-549
CAKI-1 = system: CAKI-1
CCRF-CEM = system: CCRF-CEM
DU-145 = system: DU-145
HCT-116 = system: HCT-116
HL-60 = system: HL-60
HOP-62 = system: HOP-62
Hs-578T = system: Hs-578T
LOX IMVI = system: LOX IMVI
M14 = system: M14
MCF7 = system: MCF7
MDA-MB-231 = system: MDA-MB-231
MDA-MB-435 = system: MDA-MB-435
MDA-N = system: MDA-N
NCI-H460 = system: NCI-H460
NCI-H522 = system: NCI-H522
NCI/ADR-RES = system: NCI/ADR-RES
OVCAR-4 = system: OVCAR-4
PC-3 = system: PC-3
T47D = system: T47D

Structure (SMILES): COc1ccc(/C=C/CO)cc1OC
- GI50 (786-0): > 100 µM (inactive)
- GI50 (A549): > 100 µM (inactive)
- GI50 (ACHN): > 100 µM (inactive)
- GI50 (COLO 205): > 100 µM (inactive)
- GI50 (DMS-114): > 100 µM (inactive)
- GI50 (DMS-273): > 100 µM (inactive)
- GI50 (EKVX): > 100 µM (inactive)
- GI50 (HCC 2998): > 100 µM (inactive)
- GI50 (HCT-15): > 100 µM
- GI50 (HOP-92): 56.8 µM (inactive)
- GI50 (HT-29): > 100 µM (inactive)
- GI50 (IGROV-1): > 100 µM (inactive)
- GI50 (K562): > 100 µM (inactive)
- GI50 (KM-20L2): > 100 µM (inactive)
- GI50 (KM12): > 100 µM (inactive)
- GI50 (LXFL 529): > 100 µM (inactive)
- GI50 (M19-MEL): > 100 µM (inactive)
- GI50 (MOLT-4): > 100 µM (inactive)
- GI50 (Malme-3M): > 100 µM (inactive)
- GI50 (NCI-H226): 49.9 µM (inactive)
- GI50 (NCI-H23): > 100 µM (inactive)
- GI50 (OVCAR-3): > 100 µM (inactive)
- GI50 (OVCAR-5): > 100 µM (inactive)
- GI50 (OVCAR-8): > 100 µM (inactive)
- GI50 (RPMI-8226): > 100 µM (inactive)
- GI50 (RXF 393): > 100 µM (inactive)
- GI50 (SF-268): > 100 µM (inactive)
- GI50 (SF-295): > 100 µM (inactive)
- GI50 (SF-539): > 100 µM (inactive)
- GI50 (SK-MEL-28): > 100 µM (inactive)
- GI50 (SK-MEL-2): > 100 µM (inactive)
- GI50 (SK-MEL-5): > 100 µM (inactive)
- GI50 (SK-OV-3): > 100 µM (inactive)
- GI50 (SN12C): > 100 µM (inactive)
- GI50 (SNB-19): > 100 µM (inactive)
- GI50 (SNB-75): > 100 µM (inactive)
- GI50 (SNB-78): > 100 µM (inactive)
- GI50 (SR): > 100 µM (inactive)
- GI50 (SW-620): > 100 µM (inactive)
- GI50 (TK-10): > 100 µM (inactive)
- GI50 (U-251): > 100 µM (inactive)
- GI50 (UACC-257): > 100 µM (inactive)
- GI50 (UACC-62): > 100 µM (inactive)
- GI50 (UO-31): > 100 µM (inactive)

Structure (SMILES): COc1ccccc1/C=C1\Sc2scc(-c3cccc([N+](=O)[O-])c3)[n+]2C1=O
- GI50 (786-0): 2.76 µM (inactive)
- GI50 (A498): 21.3 µM (inactive)
- GI50 (A549): 17.1 µM (inactive)
- GI50 (ACHN): 3.06 µM (inactive)
- GI50 (BT-549): 2.55 µM (inactive)
- GI50 (CAKI-1): 2.43 µM (inactive)
- GI50 (CCRF-CEM): 0.476 µM (active)
- GI50 (COLO 205): 2.11 µM (inactive)
- GI50 (DU-145): 13.5 µM (inactive)
- GI50 (EKVX): 11.4 µM (inactive)
- GI50 (HCC 2998): 10.4 µM (inactive)
- GI50 (HCT-116): 4.69 µM (inactive)
- GI50 (HCT-15): 2.11 µM
- GI50 (HL-60): 0.26 µM (active)
- GI50 (HOP-62): 13.9 µM (inactive)
- GI50 (HOP-92): 4.98 µM (inactive)
- GI50 (HT-29): 3.27 µM (inactive)
- GI50 (Hs-578T): 18.5 µM (inactive)
- GI50 (IGROV-1): 7.46 µM (inactive)
- GI50 (K562): 2.79 µM (inactive)
- GI50 (KM12): 10.8 µM (inactive)
- GI50 (LOX IMVI): 1.71 µM (inactive)
- GI50 (M14): 3.93 µM (inactive)
- GI50 (MCF7): 2 µM (inactive)
- GI50 (MDA-MB-231): 5.04 µM (inactive)
- GI50 (MDA-MB-435): 4.99 µM (inactive)
- GI50 (MDA-N): 2.87 µM (inactive)
- GI50 (MOLT-4): 1.28 µM (inactive)
- GI50 (Malme-3M): 3.3 µM (inactive)
- GI50 (NCI-H226): 12.4 µM (inactive)
- GI50 (NCI-H23): 10.4 µM (inactive)
- GI50 (NCI-H460): 13.2 µM (inactive)
- GI50 (NCI-H522): 1.34 µM (inactive)
- GI50 (NCI/ADR-RES): 6.84 µM (inactive)
- GI50 (OVCAR-3): 9.75 µM (inactive)
- GI50 (OVCAR-4): 13.3 µM (inactive)
- GI50 (OVCAR-5): 15.6 µM (inactive)
- GI50 (OVCAR-8): 7.19 µM (inactive)
- GI50 (PC-3): 15.7 µM (inactive)
- GI50 (RPMI-8226): 3.18 µM (inactive)
- GI50 (RXF 393): 4.58 µM (inactive)
- GI50 (SF-268): 4.78 µM (inactive)
- GI50 (SF-295): 17.5 µM (inactive)
- GI50 (SF-539): 1.62 µM (inactive)
- GI50 (SK-MEL-28): 15 µM (inactive)
- GI50 (SK-MEL-2): 12.8 µM (inactive)
- GI50 (SK-MEL-5): 2.53 µM (inactive)
- GI50 (SK-OV-3): 13.2 µM (inactive)
- GI50 (SN12C): 2.88 µM (inactive)
- GI50 (SNB-19): 12.1 µM (inactive)
- GI50 (SNB-75): 12.8 µM (inactive)
- GI50 (SR): 2.19 µM (inactive)
- GI50 (SW-620): 4.32 µM (inactive)
- GI50 (T47D): 7.23 µM (inactive)
- GI50 (TK-10): 2.83 µM (inactive)
- GI50 (U-251): 14.9 µM (inactive)
- GI50 (UACC-257): 7.11 µM (inactive)
- GI50 (UACC-62): 8.51 µM (inactive)
- GI50 (UO-31): 2.86 µM (inactive)

Structure (SMILES): O=c1nc(N2CCNCC2)oc2cc(Cl)oc(=O)c12
- GI50 (786-0): 3.34 µM (inactive)
- GI50 (A498): 20.8 µM (inactive)
- GI50 (A549): 7.52 µM (inactive)
- GI50 (ACHN): 6.87 µM (inactive)
- GI50 (BT-549): 0.716 µM (active)
- GI50 (CAKI-1): 2.59 µM (inactive)
- GI50 (CCRF-CEM): 1.83 µM (inactive)
- GI50 (COLO 205): 2.9 µM (inactive)
- GI50 (DU-145): 5.5 µM (inactive)
- GI50 (EKVX): 6.28 µM (inactive)
- GI50 (HCC 2998): 11.1 µM (inactive)
- GI50 (HCT-116): 2.43 µM (inactive)
- GI50 (HCT-15): 3.25 µM
- GI50 (HL-60): 1.9 µM (inactive)
- GI50 (HOP-62): 4.69 µM (inactive)
- GI50 (HOP-92): 3.94 µM (inactive)
- GI50 (HT-29): 3.91 µM (inactive)
- GI50 (Hs-578T): 1.94 µM (inactive)
- GI50 (IGROV-1): 2.7 µM (inactive)
- GI50 (K562): 2.55 µM (inactive)
- GI50 (KM12): 5.96 µM (inactive)
- GI50 (LOX IMVI): 2.06 µM (inactive)
- GI50 (M14): 2.45 µM (inactive)
- GI50 (MCF7): 3.98 µM (inactive)
- GI50 (MDA-MB-231): 12.1 µM (inactive)
- GI50 (MDA-MB-435): 4.44 µM (inactive)
- GI50 (MDA-N): 2.2 µM (inactive)
- GI50 (MOLT-4): 1.76 µM (inactive)
- GI50 (Malme-3M): 3.93 µM (inactive)
- GI50 (NCI-H226): 15.4 µM (inactive)
- GI50 (NCI-H23): 7.24 µM (inactive)
- GI50 (NCI-H460): 6.98 µM (inactive)
- GI50 (NCI-H522): 1.7 µM (inactive)
- GI50 (NCI/ADR-RES): 6.47 µM (inactive)
- GI50 (OVCAR-3): 4.06 µM (inactive)
- GI50 (OVCAR-4): 5.45 µM (inactive)
- GI50 (OVCAR-5): 15.5 µM (inactive)
- GI50 (OVCAR-8): 2 µM (inactive)
- GI50 (PC-3): 6.49 µM (inactive)
- GI50 (RPMI-8226): 1.67 µM (inactive)
- GI50 (RXF 393): 9.1 µM (inactive)
- GI50 (SF-268): 3.89 µM (inactive)
- GI50 (SF-295): 7.13 µM (inactive)
- GI50 (SF-539): 2.25 µM (inactive)
- GI50 (SK-MEL-28): 3.13 µM (inactive)
- GI50 (SK-MEL-2): 8.49 µM (inactive)
- GI50 (SK-MEL-5): 3.14 µM (inactive)
- GI50 (SK-OV-3): 12.3 µM (inactive)
- GI50 (SN12C): 6.11 µM (inactive)
- GI50 (SNB-19): 15.4 µM (inactive)
- GI50 (SNB-75): 3.7 µM (inactive)
- GI50 (SR): 1.65 µM (inactive)
- GI50 (SW-620): 2.26 µM (inactive)
- GI50 (T47D): 2.79 µM (inactive)
- GI50 (TK-10): 9.02 µM (inactive)
- GI50 (U-251): 3.91 µM (inactive)
- GI50 (UACC-257): 7.57 µM (inactive)
- GI50 (UACC-62): 7.67 µM (inactive)
- GI50 (UO-31): 7.67 µM (inactive)
